Experimental data taken from patent US11137396B2, “In vitro assays for assessing cell aging” (METAFORA BIOSYSTEMS, priority 2014, dated 2021).

Test system: hMSCs derived from ES cells
Test: XPR1/Glut1 ratio in senescence accelerated-model induced by mitomycin C (RBD labelling, flow cytometry)
Type: cell-based, human
Details: 1 or 10 μg/mL MMC for 3 hours, then 4 additional days; ES-derived hMSC; FIG. 5
Protocol: 80% confluent hMSCs derived from ES cells were treated for 3 hours with 1 or 10 μg/mL of mitomycin C (MMC, Sigma) or none (control cells). After the pulse of MMC, the cells were washed twice with PBS, detached with TrypLE Express for 5 minutes à 37° C. and re-plated in flasks for 4 additional days at the end of which the cells were detached for RBD labelling and the doubling time (h) was determined by counting.
3·10^4 cells were used for each binding and were transferred into a 96-well V-shape microplate. RBDs were premixed pairwise (Glut1.RBD.mouseFc and Xeno.RBD.rabbitFc) in culture medium containing 0.1% sodium azide and 1 mM EDTA. RBDs were added to hMSCs and incubated at 37° C. for 20 minutes. Cells were washed once with buffer B (PBS/2% FCS/0.1% sodium azide/1 mM EDTA) and then incubated with Alexa Fluor 647 goat anti-rabbit IgG (Life Technologies, 1/1 000) and R-PE goat anti-mouse IgG1 (Life technologies, 1/100) in buffer B. After 30 minutes of incubation at 4° C. in the dark, the cells were washed twice and resuspended in buffer B before flow cytometry analysis. Fluorescent signals were acquired on a FACSVerse flow cytometer (BD Biosciences) with 405, 488 and 640 nm excitation, and data analysis was performed using Flowjo software (Tree Star Inc.).
“Fluorescence minus One” controls were used to establish background level in RBD channels (R-PE and AF647). […]

For `CO[C@@]12[C@H](COC(N)=O)C3=C(C(=O)C(C)=C(N)C3=O)N1C[C@@H]1N[C@@H]12` [Mitomycin C, mitomycin C], the “XPR1/Glut1 ratio normalized to the control condition” value was “increases the XPR1/Glut1 ratio in a dose-dependant manner”.
